Experimental data taken from US11014964B2, “Peptide amide compound and preparation method and medical use thereof” (Sichuan Haisco Pharmaceutical Co., Ltd., priority 2017, dated 2021).

Key:
human κ-opioid receptor = molecular target: T1, human κ-opioid receptor (Homo sapiens, UniProt P41145); test: Agonist activity on human κ-opioid receptors (inhibition of forskolin-stimulated cAMP release, TR-FRET); format: cell-based; conditions: OPRK1 cells (DiscoveRx)
T1 construct: host or cells: OPRK1 cells (DiscoveRx)
Text: Test 1: Agonist Activity on Human κ-Opioid Receptors
Forskolin can stimulate the release of cAMP from a human κ-opioid receptor-overexpressing cell line, OPRK1 cells (DiscoveRx), and κ-opioid receptor agonists can inhibit the cAMP release stimulated by forskolin. By detecting the inhibitory effect of the test compound on the cAMP release stimulated by forskolin, the agonistic activity of the compound on the human κ-opioid receptor can be determined. First, a certain concentration of forskolin and different concentrations of the test compound were incubated with human κ-opioid receptor overexpressing cell lines. A cAMP immunoassay (LANCE®, PerkinElmer) based on time-resolved fluorescence resonance energy transfer (TR-FRET) was used to determine cAMP levels in the stimulated OPRK1 cells. The specific method is as follows:
OPRK1 cells (DiscoveRx) that highly express human κ-opioid receptors were cultured in McCoy's 5A (Gibco 16600-082) medium containing 10% FBS (Gibco 10099-141). On the day of the experiment, the cells in the exponential growth phase were washed and separated with PBS/5 mM EDTA, collected by centrifugation, resuspended with Stimulation Buffer and counted. The concentration of cells was adjusted to 3*10^5 cells/ml. DMSO was used to dissolve Forskolin and the test compound respectively, so that the mother liquor concentration each was 10 mM, and then diluted Forskolin to […] with Stimulation Buffer, and different concentrations of the test compound (the concentrations were 80, 16, 3.2, 0.64, 0.128, 0.0256, 0.00512, 0.001024, 0 μM) was added, 5 μl per well was added to a 384-well plate. 5 μl of cell suspension was added to each well and incubated at room temperature for 30 min. Subsequently, 5 μl of 4×Eu-cAMP tracer working solution (50-fold dilution of Eu-cAMP stock solution with cAMP Detection Buffer) and 5 μl of 4×Ulight-anti-cAMP working solution (150-fold dilution of ULight-anti-cAMP stock solution with cAMP Detection Buffer) were added to each well, and incubated at room temperature for 1 hour. 384-well plates were assayed for cAMP levels using a microplate reader (Perkin Elmer, Envision) TR-FRET method. The obtained data were processed and fitted to EC50 using the origin 7.5 software. The human κ-opioid receptor agonistic activity of the compound of the present invention was measured through the above experiments, and the measured EC50 values are shown in Table 1.
Stimulation Buffer preparation method: 14 mL 1*HBSS (invitrogen, cat. #14025-092), 75 μL 1 M HEPES (Invitrogen, cat. #15630-080), 30 μL 250 mM IBMX was dissolved in DMSO (Sigma, cat. #17018) and mixed with 200 μL 7.5% BSA Stabilizer. pH of the solution was adjusted to 7.4 with 0.1 N NaOH and make up to 15 mL with 1*HBSS.

Mouse PK test = format: in vivo; conditions: plasma, male ICR mice, iv, 1 mg/kg (calculated in free form)
Rat PK test = format: in vivo; conditions: male SD rats, iv, 1 mg/kg (calculated in free form)

T1 sequence (P41145 whole entry): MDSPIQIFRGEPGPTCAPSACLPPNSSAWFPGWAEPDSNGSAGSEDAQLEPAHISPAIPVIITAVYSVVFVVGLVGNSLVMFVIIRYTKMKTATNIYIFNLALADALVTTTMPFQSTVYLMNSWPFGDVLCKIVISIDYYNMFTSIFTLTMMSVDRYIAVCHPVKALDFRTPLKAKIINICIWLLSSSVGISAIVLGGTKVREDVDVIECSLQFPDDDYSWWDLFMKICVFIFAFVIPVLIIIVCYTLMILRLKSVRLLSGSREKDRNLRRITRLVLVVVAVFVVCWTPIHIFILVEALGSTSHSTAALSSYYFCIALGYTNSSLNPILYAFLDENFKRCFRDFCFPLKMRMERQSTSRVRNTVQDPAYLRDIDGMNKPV

SMILES | EC50 (human κ-opioid receptor) [nM] | also measured
CC(C)C[C@@H](NC(=O)[C@@H](Cc1ccccc1)NC(=O)[C@H](N)Cc1ccccc1)C(=O)N[C@H](CCCCN)C(=O)N1CC2(CCN(C3COC3)CC2)C1 [Compound 33, (2R)—N-[(1R)-5-amino-1-[7-(oxetan-3-yl)-2,7-diazaspiro[3.5]nonane-2-carbonyl]pentyl]-2-[[(2R)-2-[[(2R)-2-amino-3-phenyl-propanoyl]amino]-3-phenyl-propanoyl]amino]-4-methyl-pentanamide; tri-trifluoroacetic acid] | 0.05 | –
CC(=O)N1CCC2(CCN(C(=O)[C@@H](CCCCN)NC(=O)[C@@H](CC(C)C)NC(=O)[C@@H](Cc3ccccc3)NC(=O)[C@H](N)Cc3ccccc3)C2)C1 (stereo partly drawn) [Compound 31, (2R)—N-[(1R)-1-(7-acetyl-2,7-diazaspiro[4.4]nonane-2-carbonyl)-5-amino-pentyl]-2-[[(2R)-2-[[(2R)-2-amino-3-phenyl-propanoyl]amino]-3-phenyl-propanoyl]amino]-4-methyl-pentanamide; di-trifluoroacetic acid] | 0.0136 | –
CC(C)C[C@@H](NC(=O)[C@@H](Cc1ccccc1)NC(=O)[C@H](N)Cc1ccccc1)C(=O)N[C@H](CCCCN)C(=O)N1CCC2(CC1)CC(N1CCCCC1)C2 [Compound 23, (2R)-2-[[(2R)-2-[[(2R)-2-amino-3-phenyl-propanoyl]amino]-3-phenyl-propanoyl]amino]-N-[(1R)-5-amino-1-[2-(1-piperidinyl)-7-azaspiro[3.5]nonane-7-carbonyl]pentyl]-4-methyl-pentanamide; tri-trifluoroacetic acid] | 0.023 | –
CNC(=O)N1CCC2(CCN(C(=O)[C@@H](CCCCN)NC(=O)[C@@H](CC(C)C)NC(=O)[C@@H](Cc3ccccc3)NC(=O)[C@H](N)Cc3ccccc3)C2)C1 (stereo partly drawn) [Compound 22, 7-[(2R)-6-amino-2-[[(2R)-2-[[(2R)-2-[[(2R)-2-amino-3-phenyl-propanoyl]amino]-3-phenyl-propanoyl]amino]-4-methyl-pentanoyl]amino]hexanoyl]-N-methyl-2,7-diazaspiro[4.4]nonane-2-carboxamide; di-trifluoroacetic acid] | 0.0112 | –
CC(C)C[C@@H](NC(=O)[C@@H](Cc1ccccc1)NC(=O)[C@H](N)Cc1ccccc1)C(=O)N[C@H](CCCCN)C(=O)N1CCC2(CC1)CN(C(=O)N1CC(S(C)(=O)=O)C1)C2 [Compound 14, (2R)—N-[(1R)-5-amino-1-[2-(3-methylsulfonylazetidine-1-carbonyl)-2,7-diazaspiro[3.5]nonane-7-carbonyl]pentyl]-2-[[(2R)-2-[[(2R)-2-amino-3-phenyl-propanoyl]amino]-3-phenyl-propanoyl]amino]-4-methyl-pentanamide; di-trifluoroacetic acid] | 0.0155 | –
CC(C)C[C@@H](NC(=O)[C@@H](Cc1ccccc1)NC(=O)[C@H](N)Cc1ccccc1)C(=O)N[C@H](CCCCN)C(=O)N1CC2(CCN(C(=O)[C@@H](C)N)CC2(F)F)C1 [Compound 19, (2R)—N-[(1R)-5-amino-1-[7-[(2R)-2-aminopropanoyl]-5,5-difluoro-2,7-diazaspiro[3.5]nonane-2-carbonyl]pentyl]-2-[[(2R)-2-[[(2R)-2-amino-3-phenyl-propanoyl]amino]-3-phenyl-propanoyl]amino]-4-methyl-pentanamide; tri-trifluoroacetic acid] | 0.044 | –
CC(C)C[C@@H](NC(=O)[C@@H](Cc1ccccc1)NC(=O)[C@H](N)Cc1ccccc1)C(=O)N[C@H](CCCCN)C(=O)N1CCC2(CC1)CN(C(=O)N1CCCC1)C2 [Compound 13, (2R)-2-[[(2R)-2-[[(2R)-2-amino-3-phenyl-propanoyl]amino]-3-phenyl-propanoyl]amino]-N-[(1R)-5-amino-1-[2-(pyrrolidin-1-carbonyl)-2,7-diazaspiro[3.5]nonane-7-carbonyl]pentyl]-4-methyl-pentanamide; di-trifluoroacetic acid] | 0.00682 | –
CC(C)C[C@@H](NC(=O)[C@@H](Cc1ccccc1)NC(=O)[C@H](N)Cc1ccccc1)C(=O)N[C@H](CCCCN)C(=O)N1CCC2(CC1)CN(C(=O)[C@@H](C)N)C2 [Compound 17, (2R)—N-[(1R)-5-amino-1-[2-[(2R)-2-aminopropanoyl]-2,7-diazaspiro[3.5]nonane-7-carbonyl]pentyl]-2-[[(2R)-2-[[(2R)-2-amino-3-phenyl-propanoyl]amino]-3-phenyl-propanoyl]amino]-4-methyl-pentanamide; tri-trifluoroacetic acid] | 0.00919 | AUC(0-t) (Mouse PK test): 2240 ng·h/mL; half-life (Mouse PK test): 3.88 h
CC(C)C[C@@H](NC(=O)[C@@H](Cc1ccccc1)NC(=O)[C@H](N)Cc1ccccc1)C(=O)N[C@H](CCCCN)C(=O)N1CC2(CCN(S(C)(=O)=O)CC2)C1 [Compound 12, (2R)—N-[(1R)-5-amino-1-(7-methylsulfonyl-2,7-diazaspiro[3.5]nonane-2-carbonyl)pentyl]-2-[[(2R)-2-[[(2R)-2-amino-3-phenyl-propanoyl]amino]-3-phenyl-propanoyl]amino]-4-methyl-pentanamide; di-trifluoroacetic acid] | 0.067 | –
CC(C)C[C@@H](NC(=O)[C@@H](Cc1ccccc1)NC(=O)[C@H](N)Cc1ccccc1)C(=O)N[C@H](CCCCN)C(=O)N1CC2(CCN(C(=O)[C@@H](C)N)CC2)C1 [Compound 18, (2R)—N-[(1R)-5-amino-1-[7-[(2R)-2-aminopropanoyl]-2,7-diazaspiro[3.5]nonane-2-carbonyl]pentyl]-2-[[(2R)-2-[[(2R)-2-amino-3-phenyl-propanoyl]amino]-3-phenyl-propanoyl]amino]-4-methyl-pentanamide; tri-trifluoroacetic acid] | 0.04 | –
CC(=O)N1CCC2(CC1)CN(C(=O)[C@@H](CCCCN)NC(=O)[C@@H](CC(C)C)NC(=O)[C@@H](Cc1ccccc1)NC(=O)[C@H](N)Cc1ccccc1)C2 [Compound 20, (2R)—N-[(1R)-1-(7-acetyl-2,7-diazaspiro[3.5]nonane-2-carbonyl)-5-amino-pentyl]-2-[[(2R)-2-[[(2R)-2-amino-3-phenyl-propanoyl]amino]-3-phenyl-propanoyl]amino]-4-methyl-pentanamide; di-trifluoroacetic acid] | 0.086 | –
CC(C)C[C@@H](NC(=O)[C@@H](Cc1ccccc1)NC(=O)[C@H](N)Cc1ccccc1)C(=O)N[C@H](CCCCN)C(=O)N1CCC(N)(C(=O)O)CC1 [CR-845] | – | Cl (Rat PK test): 8.29 ml/kgmin; AUC(0-t) (Rat PK test; rat, plasma): 1960 ng·h/mL; half-life (Rat PK test; rat, plasma): 3.9 h; Vd (Rat PK test; rat, plasma, read-out: Vdss): 1.56 L/kg; AUC(0-t) (Mouse PK test): 1120 ng·h/mL; half-life (Mouse PK test): 0.388 h
CC(=O)N1CCC2(C1)CN(C(=O)[C@@H](CCCCN)NC(=O)[C@@H](CC(C)C)NC(=O)[C@@H](Cc1ccccc1)NC(=O)[C@H](N)Cc1ccccc1)C2 [Compound 30, (2R)—N-[(1R)-1-(7-acetyl-2,7-diazaspiro[3.4]octane-2-carbonyl)-5-amino-pentyl]-2-[[(2R)-2-[[(2R)-2-amino-3-phenyl-propanoyl]amino]-3-phenyl-propanoyl]amino]-4-methyl-pentanamide; di-trifluoroacetic acid] | 0.071 | –
